Results taken from patent US4166114A, “Aminoglycoside antibiotic derivatives and method of use” (Shionogi & Co., Ltd., priority 1976, dated 1979).
≈ marks a conversion by molar mass, not a printed value. Like-named read-outs stand apart in the source and are kept apart here.

What was measured:
[1] = system: Pseudomonas aeruginosa TB-151; test: MIC (minimum inhibitory concentration); assay type: cell-based; settings: tobramycin resistant organism
Proteus vulgaris TB-162 = test: MIC (minimum inhibitory concentration); assay type: cell-based; settings: tobramycin resistant organism
[2] = Pseudomonas aeruginosa, TB151, Table 2, read-out: MIC
[3] = Pseudomonas aeruginosa, TB151, Table 3, read-out: MIC
[4] = Proteus vulgaris, TB162, Table 2, read-out: MIC
[5] = Proteus vulgaris, TB162, Table 3, read-out: MIC

Molecule	MIC [1, 2] [µg/mL]	MIC [1, 3] [µg/mL]	MIC (Proteus vulgaris TB-162; [4]) [µg/mL]	MIC (Proteus vulgaris TB-162; [5]) [µg/mL]	MIC ([1]; Table 2) [µg/mL]	MIC (Proteus vulgaris TB-162; Table 2) [µg/mL]
NC[C@H]1O[C@H](O[C@H]2[C@H](O)[C@@H](O[C@H]3O[C@H](CO)[C@@H](O)[C@H](N)[C@H]3O)[C@H](NC(=O)C3(O)CCNCC3)C[C@@H]2N)[C@H](N)C[C@@H]1O [TOB der.]	6.25 (≈ 10.5 µM)	3.13 (≈ 5.26 µM)	6.25 (≈ 10.5 µM)	1.56 (≈ 2.62 µM)	–	–
NC[C@H]1O[C@H](O[C@H]2[C@H](O)[C@@H](O[C@H]3O[C@H](CO)[C@@H](O)[C@H](N)[C@H]3O)[C@H](N)C[C@@H]2N)[C@H](O)[C@@H](O)[C@@H]1O [KM-A, kanamycin A]	> 200	> 100	> 200	> 100	–	–
CN[C@@H]1[C@@H](O)[C@@H](O[C@@H]2[C@@H](O)[C@H](O[C@H]3OC(CN)=CC[C@H]3N)[C@@H](N)C[C@H]2N)OC[C@]1(C)O [SSM, sisomicin]	> 200	–	12.5 (≈ 27.9 µM)	–	–	–
NC[C@H]1O[C@H](O[C@H]2[C@H](O)[C@@H](O[C@H]3O[C@H](CO)[C@@H](O)[C@H](N)[C@H]3O)[C@H](NC(=O)C3(O)CCNC3)C[C@@H]2N)[C@H](O)[C@@H](O)[C@@H]1O (stereo partly drawn) [KM-A der., 1-N-(3-hydroxypyrrolidine-3-carbonyl)-kanamycin A]	–	6.25 (≈ 10.5 µM)	–	3.13 (≈ 5.24 µM)	–	–
gentamicin [GM]	–	–	–	–	100	6.25
NC[C@H]1O[C@H](O[C@H]2[C@H](O)[C@@H](O[C@H]3O[C@H](CO)[C@@H](O)[C@H](N)[C@H]3O)[C@H](N)C[C@@H]2N)[C@H](N)C[C@@H]1O [TOB, tobramycin]	100 (≈ 214 µM)	100 (≈ 214 µM)	12.5 (≈ 26.7 µM)	6.25 (≈ 13.4 µM)	–	–
